Laboratory results taken from patent US20110236886A1, “PATHOGENICITY DETERMINANTS WHICH CAN BE USED AS TARGETS FOR DEVELOPING MEANS FOR PREVENTING AND CONTROLLING BACTERIAL INFECTIONS AND/OR SYSTEMIC DISSEMINATION” (priority 2002, published 2011).

Columns and labels:
[1] = test system: DltD mutant of S. agalactiae NEM316; test: Disk diffusion sensitivity to cationic antimicrobial peptides, DltD mutant; format: cell-based, Streptococcus agalactiae; conditions: for Inhibition area (mm) Mutant DltD: blood agar plates, 18 hours at 37° C., disc content colistin 50 μg, polymixin B 10 μg; for Sensitivity of the DltD mutant to the peptide compared with wild type: result in words
Procedure: (§1) The sensitivity of wild type S. agalactiae NEM316 and DltD mutant to cationic antimicrobial peptides was measured by using a disk diffusion methods. The 2 strains were grown on blood agar plates and incubated for 18 hours at 37° C. Each strain was tested using colistin (50 μg) and polymixin (10 μg) disks. Sensitivity or resistance of NEM316 strain and the DltD mutant to each compound was determined by the size of the growth inhibition area around disk.

[2] = test system: S. agalactiae NEM316; test: Disk diffusion sensitivity to cationic antimicrobial peptides, wild type strain; format: cell-based, Streptococcus agalactiae; conditions: blood agar plates, 18 hours at 37° C., disc content colistin 50 μg, polymixin B 10 μg
Procedure: as §1

For colistin, the “Inhibition area (mm) Mutant DltD” value [1] was 14 mm, the “Sensitivity of the DltD mutant to the peptide compared with wild type” value [1] was “increased sensitivity” and the “Inhibition area (mm) NEM316” value [2] was 0 mm.
In the case of polymyxin B [Polymixin B], the “Inhibition area (mm) Mutant DltD” value [1] is reported as 14 mm, the “Sensitivity of the DltD mutant to the peptide compared with wild type” value [1] is reported as “increased sensitivity” and the “Inhibition area (mm) NEM316” value [2] is reported as 0 mm.
